This note sets out measurements from patent publication US20070293399A1, “SUBSTITUTED DIAMINO-1,3,5-TRIAZINES, PROCESSES FOR THEIR PREPARATION AND THEIR USE AS HERBICIDES AND CROP GROWTH REGULATORS” (Bayer CropScience AG, priority 2006, published 2007).

In test [1] the test system is Stellaria media, Lolium multiflorum, Amaranthus retroflexus, Sinapis alba, Avena sativa and Setaria viridis. The test can be described thus: Pre-emergence herbicidal action (greenhouse pot test). It counts as in vivo. As to conditions: application rate of 1 kg or less of active substance per hectare; scored visually after 3 to 4 weeks in comparison to untreated controls. From the text:
Seeds or rhizome pieces of mono- and dicotyledonous weed plants were placed in sandy loam in plastic pots and covered with soil. The inventive compounds, which have been formulated in the form of wettable powders or emulsion concentrates, were then applied to the surface of the covering soil as an aqueous suspension or emulsion in different dosages with an application rate of from 600 to 800 l/ha of water (converted).

In test [2] the test system is Sinapis alba, Echinochloa crus-galli, Lolium multiflorum, Stellaria media, Cyperus iria, Amaranthus retroflexus, Setaria viridis, Avena sativa, Lamium …. The experiment in a line: Post-emergence herbicidal action (greenhouse pot test). The format is in vivo. The note with it: application rate of 1 kg and less of active substance per hectare; treated at three-leaf stage; scored visually after approx. 3 to 4 weeks in comparison to untreated controls. The protocol: Seeds or rhizome pieces of mono- and dicotyledonous weeds were placed in sandy loam in plastic pots, covered with soil and grown in a greenhouse under good growth conditions. Three weeks after the sowing, the test plants were treated at the three-leaf stage. The inventive compounds formulated as spray powders or as emulsion concentrates were sprayed onto the green plant parts in various dosages with an application rate of from 600 to 800 l/ha of water (converted). After the test plants had been left to stand in the greenhouse under optimal growth conditions for approx. 3 to 4 weeks, the action of the preparations was scored visually in comparison to untreated controls. The inventive compositions also had good post-emergence herbicidal activity against a wide spectrum of economically important gramineous and broadleaf weeds.

On to `Cc1ccc2c(c1)[C@H](Nc1ncnc(NC(=O)NC(C)(C)C)n1)[C@@H](C)C2` [Compound 2.43, N-(Tert-butyl)-N′-(4-{[(1R,2S)-2,6-dimethyl-2,3-dihydro-1H-inden-1-yl]amino}-1,3,5triazin-2-yl)urea], for which, in test [1], the “herbicidal action against harmful plants in the pre-emergence method” value (“herbicidal action … in the pre-emergence method” below) is given as “very good herbicidal action”. Further, the “herbicidal action against harmful plants in the post-emergence method” value (shortened to “herbicidal action … in the post-emergence method”) in test [2] was “very good herbicidal action”.

On to `Cc1ccc(NC(=O)Nc2nc(N[C@@H]3CCCc4ccccc43)nc([C@@H](C)F)n2)cc1` [Compound 2.59], for which the “herbicidal action … in the pre-emergence method” value in test [1] is recorded as “very good herbicidal action”. Further, the “herbicidal action … in the post-emergence method” value in test [2] is given as “very good herbicidal action”.

For the molecule `Cc1ccc(NC(=O)Nc2ncnc(NC3c4cc(C)ccc4CC3C)n2)cc1` (stereo not shown) [Compound 2.60], in test [1], the “herbicidal action … in the pre-emergence method” value was “very good herbicidal action”. Besides, the “herbicidal action … in the post-emergence method” value in test [2] was “very good herbicidal action”.

In the case of `Cc1ccc2c(c1)C(Nc1nc(NC(=O)C3CC3)nc(C(C)F)n1)C(C)C2` (stereo not shown) [Compound 2.67], the “herbicidal action … in the pre-emergence method” value in test [1] is listed as “very good herbicidal action”. Moreover, the “herbicidal action … in the post-emergence method” value in test [2] is recorded as “very good herbicidal action”.

Consider `C[C@@H](F)c1nc(NC(=O)C2CC2)nc(N[C@@H]2CCCc3ccccc32)n1` [Compound 2.68], for which the “herbicidal action … in the pre-emergence method” value in test [1] was “very good herbicidal action”. For the same molecule, the “herbicidal action … in the post-emergence method” value in test [2] is listed as “very good herbicidal action”.

Take `Cc1ccc2c(c1)C(Nc1ncnc(NC(=O)C3CC3)n1)C(C)C2` (stereo not shown) [Compound 2.75]: in test [1], the “herbicidal action … in the pre-emergence method” value was “very good herbicidal action”. In addition, in test [2], the “herbicidal action … in the post-emergence method” value is “very good herbicidal action”.

`Cc1ccc2c(c1)C(Nc1nc(NC(=S)NC(C)(C)C)nc(C(C)F)n1)C(C)C2` (stereo not shown) [Compound 2.76]: the “herbicidal action … in the pre-emergence method” value in test [1] is reported as “very good herbicidal action”. Further, the “herbicidal action … in the post-emergence method” value in test [2] was “very good herbicidal action”.

Take `Cc1ccc2c(c1)C(Nc1nc(NC(=O)NC(C)C)nc(C(C)F)n1)C(C)C2` (stereo not shown) [Compound 2.78]: in test [1], the “herbicidal action … in the pre-emergence method” value is listed as “very good herbicidal action”. In addition, in test [2], the “herbicidal action … in the post-emergence method” value is “very good herbicidal action”.

`CCCCNC(=O)Nc1nc(NC2c3cc(C)ccc3CC2C)nc(C(C)F)n1` (stereo not shown) [Compound 2.87]: the “herbicidal action … in the pre-emergence method” value in test [1] is “very good herbicidal action”. For the same molecule, the “herbicidal action … in the post-emergence method” value in test [2] was “very good herbicidal action”.

With `CCCCCCNC(=O)Nc1nc(NC2c3cc(C)ccc3CC2C)nc(C(C)F)n1` (stereo not shown) [Compound 2.88], in test [1], the “herbicidal action … in the pre-emergence method” value is “very good herbicidal action”. The “herbicidal action … in the post-emergence method” value in test [2] is listed as “very good herbicidal action”.

Turning to `Cc1ccc2c(c1)C(Nc1nc(NC(=O)NC3CCCC3)nc(C(C)F)n1)C(C)C2` (stereo not shown) [Compound 2.101], the “herbicidal action … in the pre-emergence method” value in test [1] is recorded as “very good herbicidal action”. In test [2], the “herbicidal action … in the post-emergence method” value is reported as “very good herbicidal action”.

As for `Cc1ccc2c(c1)C(Nc1nc(NC(=O)NCc3ccccc3)nc(C(C)F)n1)C(C)C2` (stereo not shown) [Compound 2.103], in test [1], the “herbicidal action … in the pre-emergence method” value is reported as “very good herbicidal action”. Moreover, in test [2], the “herbicidal action … in the post-emergence method” value is given as “very good herbicidal action”.

Regarding `COCCNC(=O)Nc1nc(NC2c3cc(C)ccc3CC2C)nc(C(C)F)n1` (stereo not shown) [Compound 2.104], the “herbicidal action … in the pre-emergence method” value in test [1] is “very good herbicidal action”. Further, the “herbicidal action … in the post-emergence method” value in test [2] is on record as “very good herbicidal action”.

Regarding `COC(C)(C)CNC(=O)Nc1nc(NC2c3cc(C)ccc3CC2C)nc(C(C)F)n1` (stereo not shown) [Compound 2.105], the “herbicidal action … in the pre-emergence method” value in test [1] is reported as “very good herbicidal action”. For the same molecule, in test [2], the “herbicidal action … in the post-emergence method” value is “very good herbicidal action”.

Regarding `CCOC(CNC(=O)Nc1nc(NC2c3cc(C)ccc3CC2C)nc(C(C)F)n1)OCC` (stereo not shown) [Compound 2.106], in test [1], the “herbicidal action … in the pre-emergence method” value is “very good herbicidal action”. For the same molecule, the “herbicidal action … in the post-emergence method” value in test [2] is listed as “very good herbicidal action”.

`CCOC(=O)CNC(=O)Nc1nc(NC2c3cc(C)ccc3CC2C)nc(C(C)F)n1` (stereo not shown) [Compound 2.111]: in test [1], the “herbicidal action … in the pre-emergence method” value was “very good herbicidal action”. In addition, the “herbicidal action … in the post-emergence method” value in test [2] was “very good herbicidal action”.

Consider `COC(C)(C)CNC(=S)Nc1nc(NC2c3cc(C)ccc3CC2C)nc(C(C)F)n1` (stereo not shown) [Compound 2.114], for which, in test [1], the “herbicidal action … in the pre-emergence method” value is recorded as “very good herbicidal action”. The “herbicidal action … in the post-emergence method” value in test [2] is “very good herbicidal action”.

Turning to `Cc1ccc2c(c1)C(Nc1nc(NC(=O)Nc3ccccc3)nc(C(C)F)n1)C(C)C2` (stereo not shown) [Compound 2.115], the “herbicidal action … in the pre-emergence method” value in test [1] is given as “very good herbicidal action”. Moreover, the “herbicidal action … in the post-emergence method” value in test [2] is on record as “very good herbicidal action”.

As to `Cc1ccc(NC(=O)Nc2nc(NC3c4cc(C)ccc4CC3C)nc(C(C)F)n2)cc1` (stereo not shown) [Compound 2.116], in test [1], the “herbicidal action … in the pre-emergence method” value is reported as “very good herbicidal action”. For the same molecule, the “herbicidal action … in the post-emergence method” value in test [2] is “very good herbicidal action”.

Turning to `Cc1ccc2c(c1)C(Nc1nc(NC(=O)Nc3ccc(F)cc3)nc(C(C)F)n1)C(C)C2` (stereo not shown) [Compound 2.117], the “herbicidal action … in the pre-emergence method” value in test [1] was “very good herbicidal action”. Moreover, the “herbicidal action … in the post-emergence method” value in test [2] is reported as “very good herbicidal action”.

Regarding `COc1ccc(NC(=O)Nc2nc(NC3c4cc(C)ccc4CC3C)nc(C(C)F)n2)cc1` (stereo not shown) [Compound 2.122], the “herbicidal action … in the pre-emergence method” value in test [1] is reported as “very good herbicidal action”. Moreover, the “herbicidal action … in the post-emergence method” value in test [2] is on record as “very good herbicidal action”.

As to `Cc1ccc2c(c1)C(Nc1nc(NC(=S)Nc3ccccc3)nc(C(C)F)n1)C(C)C2` (stereo not shown) [Compound 2.127], the “herbicidal action … in the pre-emergence method” value in test [1] was “very good herbicidal action”. The “herbicidal action … in the post-emergence method” value in test [2] is reported as “very good herbicidal action”.

Take `Cc1ccc(NC(=S)Nc2nc(NC3c4cc(C)ccc4CC3C)nc(C(C)F)n2)cc1` (stereo not shown) [Compound 2.128]: the “herbicidal action … in the pre-emergence method” value in test [1] is reported as “very good herbicidal action”. Further, the “herbicidal action … in the post-emergence method” value in test [2] is “very good herbicidal action”.

For the molecule `Cc1ccc2c(c1)C(Nc1nc(NC(=S)Nc3ccc(F)cc3)nc(C(C)F)n1)C(C)C2` (stereo not shown) [Compound 2.129], in test [1], the “herbicidal action … in the pre-emergence method” value is “very good herbicidal action”. Further, the “herbicidal action … in the post-emergence method” value in test [2] is recorded as “very good herbicidal action”.

With `COc1ccc(NC(=S)Nc2nc(NC3c4cc(C)ccc4CC3C)nc(C(C)F)n2)cc1` (stereo not shown) [Compound 2.130], in test [1], the “herbicidal action … in the pre-emergence method” value was “very good herbicidal action”. Also, the “herbicidal action … in the post-emergence method” value in test [2] is given as “very good herbicidal action”.

As to `Cc1ccc2c(c1)C(Nc1nc(NC(=S)NCc3ccccc3)nc(C(C)F)n1)C(C)C2` (stereo not shown) [Compound 2.131], the “herbicidal action … in the pre-emergence method” value in test [1] is “very good herbicidal action”. Besides, the “herbicidal action … in the post-emergence method” value in test [2] is “very good herbicidal action”.
